Experimental data taken from publication PMC7377239, “Cardiovascular Effects of Polychlorinated Biphenyls and Their Major Metabolites” (Environmental Health Perspectives, 2020).
Where a name gives a salt, the structure may show the parent alone. Read-outs that look alike come from different tables or passages of the source.

Key:
[1] = system: iCell endothelial cells (human iPSC-derived ECs); experiment: High-content imaging cytotoxicity in iCell endothelial cells, 24 h; type: cell-based; details: Homo sapiens, Endothelial cell, iPSC-EC, 24 hr; for viability at 0.1 µM / activity at 0.1 µM: 0.10 µM; for minimal effective concentration: top concentration 100.00 µM
Summary of the method: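 Human iPSC-derived endothelial cells (passages 1–5) were grown to a fibronectin-coated monolayer, then exposed 24 h at 37 °C with 0.5% DMSO vehicle. Staining was Hoechst 33342, MitoTracker Orange and calcein AM, read by high-content imaging. Point of departure came from 4-parameter logistic fits, with a 1-SD vehicle cutoff and 100 µM as the top concentration.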

[2] = system: iCell endothelial cells (human iPSC-derived ECs); experiment: Tube formation (tubulogenesis) assay in iCell endothelial cells, 18 h; type: cell-based; details: Homo sapiens, Endothelial cell, iPSC-EC tube formation, 18 hr; for activity at 0.1 µM: 0.10 µM; for minimal effective concentration: top concentration 100.00 µM
Summary of the method: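 iCell ECs (passages 1–5) seeded 7,500 cells/well on reduced-growth-factor Geltrex in starvation medium, exposed overnight at 37°C to compounds in triplicate concentration–response (0.5% DMSO vehicle). Calcein AM staining, 4× imaging, angiogenesis image analysis; readouts normalized to vehicle, four-parameter logistic fit, POD at 1 SD of vehicle; 100 μM assigned NOAEL if no response.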

[3] = 0.00 µM control = 100.00, read-out: endo.cyto.24hr
[4] = 0.00 µM control = 100.00, read-out: endo.mito.24hr
[5] = 0.00 µM control = 100.00, read-out: endo.mitoint.24hr
[6] = 0.00 µM control = 100.00, read-out: endo.nma.24hr
[7] = 0.00 µM control = 100.00, read-out: endo.tc.24hrs
[8] = 0.00 µM control = 100.00, read-out: endo.mtl.18hr
[9] = 0.00 µM control = 100.00, read-out: endo.tlps.18hr
[10] = 0.00 µM control = 100.00, read-out: endo.tta.18hr
[11] = 0.00 µM control = 100.00, read-out: endo.ttl.18hr

`O=S(=O)(O)Oc1ccc(-c2ccc(Cl)cc2)cc1` [4'-yl PCB 3 sulfate] showed a viability at 0.01 µM [1, 3] of 101%, an activity at 0.01 µM [1, 4] of 101% and an activity at 0.01 µM [1, 5] of 114%. For the same molecule, the activity at 0.01 µM [1, 6] was 99.9%, the viability at 0.01 µM [1, 7] was 101% and the viability at 0.1 µM [1, 3] was 101%. For the same molecule, the activity at 0.1 µM [1, 4] was 101%, the activity at 0.1 µM [1, 5] was 103% and the activity at 0.1 µM [1, 6] was 99.6%. The viability at 0.1 µM [1, 7] was 101%, the viability at 1 µM [1, 3] was 101% and the activity at 1 µM [1, 4] was 101%. It also gave an activity at 1 µM [1, 5] of 100%, an activity at 1 µM [1, 6] of 98.8% and a viability at 1 µM [1, 7] of 101%. For the same molecule, the viability at 10 µM [1, 3] was 101%, the activity at 10 µM [1, 4] was 102% and the activity at 10 µM [1, 5] was 98%. For the same molecule, the activity at 10 µM [1, 6] was 98.8%, the viability at 10 µM [1, 7] was 101% and the viability at 100 µM [1, 3] was 91.5%. The activity at 100 µM [1, 4] was 91.9%, the activity at 100 µM [1, 5] was 106% and the activity at 100 µM [1, 6] was 104%. For the same molecule, the viability at 100 µM [1, 7] was 91.5%, the minimal effective concentration ([1]; read-out: endo.cyto.24hr POD) was 100 µM and the minimal effective concentration ([1]; read-out: endo.mito.24hr POD) was 100 µM. The minimal effective concentration ([1]; read-out: endo.mitoint.24hr POD) was 100 µM, the minimal effective concentration ([1]; read-out: endo.nma.24hr POD) was 100 µM and the minimal effective concentration ([1]; read-out: endo.tc.24hrs POD) was 100 µM. The activity at 0.01 µM [2, 8] was 99.2%, the activity at 0.01 µM [2, 9] was 113% and the activity at 0.01 µM [2, 10] was 157%. It also gave an activity at 0.01 µM [2, 11] of 149%, an activity at 0.1 µM [2, 8] of 105% and an activity at 0.1 µM [2, 9] of 129%. It also gave an activity at 0.1 µM [2, 10] of 138%, an activity at 0.1 µM [2, 11] of 134% and an activity at 1 µM [2, 8] of 98.2%. It also gave an activity at 1 µM [2, 9] of 137%, an activity at 1 µM [2, 10] of 128% and an activity at 1 µM [2, 11] of 120%. It also gave an activity at 10 µM [2, 8] of 74.7%, an activity at 10 µM [2, 9] of 85.4% and an activity at 10 µM [2, 10] of 81.2%. The activity at 10 µM [2, 11] was 76.8%, the activity at 100 µM [2, 8] was 60.3% and the activity at 100 µM [2, 9] was 28%. For the same molecule, the activity at 100 µM [2, 10] was 41.8%, the activity at 100 µM [2, 11] was 44.3% and the minimal effective concentration ([2]; read-out: endo.mtl.18hr POD) was 4.33 µM. The minimal effective concentration ([2]; read-out: endo.tlps.18hr POD) was 11.7 µM, the minimal effective concentration ([2]; read-out: endo.tta.18hr POD) was 16.8 µM and the minimal effective concentration ([2]; read-out: endo.ttl.18hr POD) was 11 µM.
